Data taken from US20150157568A1, “Treatment of Spasticity with Intrathecal Dantrolene” (Allergan, Inc., priority 2013, published 2015).

System: awake spastic rats
Assay: Spastic rat model (EMG activity during ankle dorsiflexion after spinal cord ischemia)
Format: in vivo, Sprague-Dawley rats
Protocol: FIG. 2 describes the rat spasticity model. (A,B) Electromyogram (EMG) responses (recorded from the gastrocnemius muscle) from an awake, but restrained normal and representative spastic rat when the ankle is rotated at velocity of (40°/3 sec) using a computer-controlled ankle rotational device. The presence of spasticity is identified by the appearance of burst EMG activity (active EMG). (C) To calculate the percent of inhibition of spastic muscle activity by a test agent during ankle dorsiflexion, animals were anaesthetized with isoflurane at the end of the experiment and the magnitude of active EMG during ankle dorsiflexion measured under isoflurane anaesthesia is then used as the maximum possible effect and is defined in each spastic animal. All drug treatment data generated after treatment are then normalized in using the maximum effect seen under isoflurane anaesthesia.
Animal: Male Sprague-Dawley rats (approximately 350 gram body weight) were used in the assay. The rats were housed at room temperature (65-82° F.) and relative humidity within the range between 30 to 70%. The room will be illuminated with fluorescent lighting on a daily 12 hour light/dark cycle. All animals will have free access to dry food. Municipal water will be freely available.
Spasticity development and measurement: Rats were exposed to transient spinal cord ischemia by aortic balloon occlusion for 10-12 minutes. Animals with fully developed spasticity will be selected at 4-8 weeks after ischemic injury and prepared for spasticity measurement. Presence of spasticity will be defined by increased peripheral muscle resistance measured during computer-controlled ankle dorsiflexion and correlative changes in EMG (electromyography) activity measured in gastrocnemius muscle (see FIG. 2).
An increased EMG activity induced by ankle dorsiflexion is a consistent and reliable measure of spasticity. Before administration of dantrolene, baseline EMG measurements were conducted. Animals with identified spasticity were then assigned to the experimental groups to be treated with dantrolene or vehicle through intraperitoneal and intrathecal routes.
Intraperitoneal dosing: Three different doses (5, 15, 50 mg/kg) of dantrolene and vehicle were injected intraperitoneally (6 rats per treatment/dose). After dantrolene administration, correlative changes in EMG were recorded at 15, 30, 60, 90, and 120 minutes following intraperitoneal injection. Changes in baseline EMG activity and ankle-rotation evoked EMG activity were then analyzed and the efficacy of treatment on spasticity calculated.
Intrathecal dosing: Animals with identified spasticity were implanted intrathecally with a fine plastic (e.g., PE-10) catheter for bolus drug delivery. Two to three days after intrathecal catheter implantation, the baseline spasticity response was measured and animals were then injected IT with dantrolene (250 μg, 6 rats) and spasticity response was measured for 2 hrs. In control animals (6 rats) vehicle was injected only.

[1] = intraperitoneal (IP), 50 mg/kg, single injection, awake spastic rats

Structure (SMILES) | effect of systemic administration on spastic activity (intraperitoneal (IP) injection, 5, 15, 50 mg/kg, awake spastic rats) | spastic activity, % of the pre-treatment level (intraperitoneal (IP), 50 mg/kg, single injection, highest dose tested, awake spastic rats) | duration of reduction of spastic activity [1] | reduction of spastic activity [1] | anti-spastic effect of intrathecal administration (intrathecal (IT), single 250 μg bolus injection, awake spastic rats (n=6), at least as robust as 50 mg/kg systemic) | effect on spastic activity (positive control, maximal anti-spastic effect) (isoflurane anesthesia at the end of the experiment, defined as 0%)
O=C1CN(/N=C/c2ccc(-c3ccc([N+](=O)[O-])cc3)o2)C(O)=N1 [dantrolene] | reduces spastic activity in the awake spastic rats in a dose dependent manner | about 30% | at least 2 hours | 70% | potent anti-spastic effect | 
FC(F)OC(Cl)C(F)(F)F (stereo not drawn) [Isoflurane] |  |  |  |  |  | virtually eliminated all spastic activity
